ChEMBL document CHEMBL1201862, “PubChem BioAssay data set” (2004)
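1) Cells in 96-well plates. 2) Compound, 48 h, 5 concentrations. 3) Linear interpolation between surrounding doses. 4) Unreached endpoint = highest concentration. GI50 marks 50% less growth.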 Activity calls are given as the source filed them. Cut-off read from the data, not from the text of the source: active = GI50 up to about 1.1 µM and inactive = higher.

Key:
Assay in all cases: inhibition of tumour cell growth, NCI panel, 48 h
KM12 = tested on: KM12
UACC-257 = tested on: UACC-257
HCT-15 = tested on: HCT-15
OVCAR-3 = tested on: OVCAR-3
SNB-19 = tested on: SNB-19
SK-MEL-2 = tested on: SK-MEL-2
TK-10 = tested on: TK-10
OVCAR-4 = tested on: OVCAR-4
RXF 393 = tested on: RXF 393
NCI-H23 = tested on: NCI-H23
NCI-H460 = tested on: NCI-H460
CAKI-1 = tested on: CAKI-1
Malme-3M = tested on: Malme-3M
UO-31 = tested on: UO-31
NCI-H522 = tested on: NCI-H522
786-0 = tested on: 786-0

| Compound | GI50 (KM12) | GI50 (UACC-257) | GI50 (HCT-15) [µM] | GI50 (OVCAR-3) | GI50 (SNB-19) | GI50 (SK-MEL-2) | GI50 (TK-10) | GI50 (OVCAR-4) | GI50 (RXF 393) | GI50 (NCI-H23) | GI50 (NCI-H460) | GI50 (CAKI-1) | GI50 (Malme-3M) | GI50 (UO-31) | GI50 (NCI-H522) | GI50 (786-0) |
| --- | --- | --- | --- | --- | --- | --- | --- | --- | --- | --- | --- | --- | --- | --- | --- | --- |
| Cc1ccc(C)c(N2C(=O)C(=O)C(c3nc4ccccc4s3)C(=O)C2=O)c1 | > 100 µM (inactive) | > 100 µM (inactive) | > 100 | > 100 µM (inactive) | > 100 µM (inactive) | > 100 µM (inactive) | > 100 µM (inactive) | > 100 µM (inactive) | > 100 µM (inactive) | > 100 µM (inactive) | > 100 µM (inactive) | > 100 µM (inactive) | > 100 µM (inactive) | > 100 µM (inactive) | > 100 µM (inactive) | > 100 µM (inactive) |
| Cc1ns/c(=N\C(=S)N(C)C)n1C | > 100 µM (inactive) | > 100 µM (inactive) | > 100 |  | > 100 µM (inactive) | > 100 µM (inactive) | > 100 µM (inactive) | > 100 µM (inactive) | > 100 µM (inactive) | > 100 µM (inactive) | > 100 µM (inactive) | > 100 µM (inactive) | > 100 µM (inactive) | > 100 µM (inactive) | > 100 µM (inactive) | > 100 µM (inactive) |
| COc1ccc(S(=O)(=O)NNS(C)(=O)=O)cc1 | > 100 µM (inactive) | > 100 µM (inactive) | > 10 |  | > 100 µM (inactive) | 60.5 µM (inactive) | > 100 µM (inactive) | > 100 µM (inactive) | > 100 µM (inactive) | > 100 µM (inactive) |  | > 100 µM (inactive) | > 100 µM (inactive) | > 100 µM (inactive) | > 100 µM (inactive) | > 100 µM (inactive) |
| CN(C)C(c1ccccc1)C(O)c1ccccc1 (stereo unspecified) | > 100 µM (inactive) | > 100 µM (inactive) | > 100 | > 100 µM (inactive) | > 100 µM (inactive) | > 100 µM (inactive) | > 100 µM (inactive) |  | > 100 µM (inactive) | > 100 µM (inactive) | > 100 µM (inactive) | > 100 µM (inactive) | > 100 µM (inactive) | > 100 µM (inactive) | > 100 µM (inactive) | > 100 µM (inactive) |
| CNC(=S)OCCC(C)CCCC(C)C (stereo unspecified) | 14.4 µM (inactive) | 16.4 µM (inactive) | 14.7 |  | 16.9 µM (inactive) | 13.7 µM (inactive) | 12.8 µM (inactive) | 16.7 µM (inactive) | 16.2 µM (inactive) | 18.8 µM (inactive) | 18.7 µM (inactive) | 17.1 µM (inactive) | 21.5 µM (inactive) | 7.16 µM (inactive) |  | 17.2 µM (inactive) |
| CC(=O)Nc1ccc(-c2nnc(SCC(=O)Nc3ccc(C)cc3)o2)cc1 | 19.1 µM (inactive) | 20.3 µM (inactive) | 16.2 | 22.4 µM (inactive) |  | 14.5 µM (inactive) | 27.8 µM (inactive) | 17.7 µM (inactive) | 19 µM (inactive) | 15.7 µM (inactive) | 23.2 µM (inactive) | 11.9 µM (inactive) | 15.7 µM (inactive) | 47.6 µM (inactive) | 18.2 µM (inactive) | 17 µM (inactive) |
| Nc1nc2c(ncn2C2OC(CO)C(O)C2N)c(=O)[nH]1 (stereo unspecified) | > 100 µM (inactive) | > 100 µM (inactive) | > 100 | > 100 µM (inactive) | > 100 µM (inactive) | > 100 µM (inactive) | > 100 µM (inactive) |  |  | > 100 µM (inactive) | > 100 µM (inactive) | > 100 µM (inactive) | > 100 µM (inactive) | > 100 µM (inactive) | > 100 µM (inactive) | 48.2 µM (inactive) |
| CC(Oc1ccc2c(=O)cc(-c3ccccc3)oc2c1)C(=O)O (stereo unspecified) | > 100 µM (inactive) | > 100 µM (inactive) |  | > 100 µM (inactive) | > 100 µM (inactive) |  | > 100 µM (inactive) | > 100 µM (inactive) | > 100 µM (inactive) | > 100 µM (inactive) | > 100 µM (inactive) | > 100 µM (inactive) | > 100 µM (inactive) | > 100 µM (inactive) | > 100 µM (inactive) | > 100 µM (inactive) |
| COc1ccc(NC(=O)COC(=O)c2cccc3c(=O)c4ccccc4[nH]c23)cc1 | 16.9 µM (inactive) | 19.9 µM (inactive) |  | 22.1 µM (inactive) | 30.1 µM (inactive) |  | 15.8 µM (inactive) | 17.9 µM (inactive) | 15.3 µM (inactive) | 15.1 µM (inactive) |  | 19.5 µM (inactive) | 23.4 µM (inactive) | 14.8 µM (inactive) | 17.9 µM (inactive) | 19.1 µM (inactive) |
| O=C1/C(=C/c2ccc(Cl)cc2)CNC/C1=C\c1ccc(Cl)cc1 | 1.44 µM (inactive) |  | 1.62 | 1.86 µM (inactive) | 1.7 µM (inactive) |  | 4.06 µM (inactive) |  |  | 1.95 µM (inactive) | 2.11 µM (inactive) | 2.44 µM (inactive) | 3.81 µM (inactive) |  | 2.02 µM (inactive) | 2.07 µM (inactive) |
